This note sets out measurements from ChEMBL document CHEMBL5365447, “Pronucleotides of 2',3'-Dideoxy-2',3'-Didehydrothymidine as Potent Anti-HIV Compounds” (J Med Chem, 2023).

One may read the CC50 as the concentration giving 50% cytotoxicity. The term half-life denotes the time in which the quantity being followed falls by half. Usually EC50 stands for the concentration that produces a half-maximal response.

SMILES strings stand for the structures. Calls of active or inactive are those of the source. The rule behind the calls is not given here.

Data set [1] can be described thus: Prodrug conversion in pH 7.3 phosphate buffer assessed as ((2S,5R)-5-(5-methyl-2,4-dioxo-3,4-dihydropyrimidin-1(2H)-yl)-2,5-dihydrofuran-2-yl)methyl tri-hydrogen diphosphate formation by measuring half life in presence of pig liver esterase by HPLC analysis. Type of data set: ADME.
The nature of data set [2]: Prodrug conversion in human CEM/0 cell extract assessed as ((2S,5R)-5-(5-methyl-2,4-dioxo-3,4-dihydropyrimidin-1(2H)-yl)-2,5-dihydrofuran-2-yl)methyl tetrahydrogen triphosphate formation by HPLC analysis. Particulars: ccrf-cem. Type of data set: ADME.
Data set [3] has as its system Human immunodeficiency virus 2. Kind of data set: Potency index, ratio of 3'-deoxy-2',3'-dehydrothymidine EC50 to compound EC50 for antiviral activity against HIV-2 ROD infected in thymidine kinase-deficient human CEM[…] cells. In kind it is functional.
For data set [4], the target named is DNA polymerase beta (Homo sapiens) (UniProt P06746). Kind of data set: Substrate activity at human DNA polymerase beta measured after 4 hrs by electrophoresis based primer extension assay.
For data set [5], the system named is Human immunodeficiency virus 1. Kind of data set: Potency index, ratio of 3'-deoxy-2',3'-dehydrothymidine EC50 to compound EC50 for antiviral activity against HIV-1 HE infected in wild-type human CEM/0 cells. In kind it is functional.
Data set [6] can be described thus: Selectivity index, ratio of CC50 for human CEM cells to EC50 for HIV-2 ROD infected in thymidine kinase-deficient human CEM cells. In kind it is toxicity. Conditions: read-out: Ratio CC50/EC50.
Data set [7] has as its system Human immunodeficiency virus 2. Kind of data set: Potency index, ratio of 3'-deoxy-2',3'-dehydrothymidine EC50 to compound EC50 for antiviral activity against HIV-2 ROD infected in wild-type human CEM/0 cells. Type of data set: functional.
Data set [8] is described as follows: Prodrug conversion in human CEM/0 cell extract assessed as ((2S,5R)-5-(5-methyl-2,4-dioxo-3,4-dihydropyrimidin-1(2H)-yl)-2,5-dihydrofuran-2-yl)methyl tri-hydrogen diphosphate formation by HPLC analysis. Type of data set: ADME. Conditions: ccrf-cem.
Data set [9] is described as follows: Cytotoxicity against human CEM cells assessed as reduction in cell viability incubated for 4 to 5 days by light microscopic analysis. Type of data set: toxicity, cell-based. Particulars: CEM cells (CCRF-CEM), time 4-5 day.
Data set [10] deals with T1, DNA polymerase subunit gamma-1 (Homo sapiens) (UniProt P54098).
T1 sequence (whole entry): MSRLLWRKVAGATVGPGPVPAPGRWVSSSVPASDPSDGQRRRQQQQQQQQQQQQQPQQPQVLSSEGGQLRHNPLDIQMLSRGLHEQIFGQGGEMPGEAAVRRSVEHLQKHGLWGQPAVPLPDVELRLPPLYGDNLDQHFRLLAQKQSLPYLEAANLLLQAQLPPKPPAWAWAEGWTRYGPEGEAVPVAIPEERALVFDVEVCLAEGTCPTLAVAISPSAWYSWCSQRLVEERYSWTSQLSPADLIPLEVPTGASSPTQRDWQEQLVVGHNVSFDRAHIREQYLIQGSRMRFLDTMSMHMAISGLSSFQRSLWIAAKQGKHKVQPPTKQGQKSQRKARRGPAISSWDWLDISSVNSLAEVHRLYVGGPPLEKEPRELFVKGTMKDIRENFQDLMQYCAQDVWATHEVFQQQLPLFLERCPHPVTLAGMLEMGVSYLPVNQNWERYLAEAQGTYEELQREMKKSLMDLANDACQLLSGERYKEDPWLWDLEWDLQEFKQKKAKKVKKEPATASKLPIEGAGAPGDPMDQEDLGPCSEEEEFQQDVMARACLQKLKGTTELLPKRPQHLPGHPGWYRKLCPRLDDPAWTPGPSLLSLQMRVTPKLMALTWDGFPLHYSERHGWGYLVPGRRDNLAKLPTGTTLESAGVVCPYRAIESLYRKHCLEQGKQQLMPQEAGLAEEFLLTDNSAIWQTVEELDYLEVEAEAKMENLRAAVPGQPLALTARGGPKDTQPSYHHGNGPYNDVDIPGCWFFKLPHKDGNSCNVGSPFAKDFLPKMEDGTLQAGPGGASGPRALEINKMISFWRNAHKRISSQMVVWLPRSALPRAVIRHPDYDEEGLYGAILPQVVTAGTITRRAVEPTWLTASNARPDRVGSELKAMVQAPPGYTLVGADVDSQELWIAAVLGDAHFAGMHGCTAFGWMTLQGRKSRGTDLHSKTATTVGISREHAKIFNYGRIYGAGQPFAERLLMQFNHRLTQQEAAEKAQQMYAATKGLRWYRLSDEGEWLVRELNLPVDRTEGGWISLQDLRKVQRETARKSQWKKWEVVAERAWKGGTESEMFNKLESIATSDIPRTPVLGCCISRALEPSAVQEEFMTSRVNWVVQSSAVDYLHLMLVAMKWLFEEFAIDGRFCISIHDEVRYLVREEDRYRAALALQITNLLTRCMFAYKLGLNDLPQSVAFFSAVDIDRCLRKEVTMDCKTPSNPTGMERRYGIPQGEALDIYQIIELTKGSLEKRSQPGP
Kind of data set: Substrate activity at human DNA polymerase gamma measured after 4 hrs by electrophoresis based primer extension assay.

Data set [11] can be described thus: Prodrug conversion in human CEM/0 cell extract assessed as metabolite formation by measuring half life by HPLC analysis. Type of data set: ADME. Conditions: ccrf-cem.
A short description of data set [12]: Retention time of the compound by HPLC analysis. Type of data set: physicochemical.
A short description of data set [13]: Chemical stability of the compound in phosphate buffer assessed as half life at pH 7.3 by HPLC analysis. In kind it is physicochemical.
Data set [14] deals with T2, DNA polymerase alpha catalytic subunit (Homo sapiens) (UniProt P09884).
T2 sequence (whole entry): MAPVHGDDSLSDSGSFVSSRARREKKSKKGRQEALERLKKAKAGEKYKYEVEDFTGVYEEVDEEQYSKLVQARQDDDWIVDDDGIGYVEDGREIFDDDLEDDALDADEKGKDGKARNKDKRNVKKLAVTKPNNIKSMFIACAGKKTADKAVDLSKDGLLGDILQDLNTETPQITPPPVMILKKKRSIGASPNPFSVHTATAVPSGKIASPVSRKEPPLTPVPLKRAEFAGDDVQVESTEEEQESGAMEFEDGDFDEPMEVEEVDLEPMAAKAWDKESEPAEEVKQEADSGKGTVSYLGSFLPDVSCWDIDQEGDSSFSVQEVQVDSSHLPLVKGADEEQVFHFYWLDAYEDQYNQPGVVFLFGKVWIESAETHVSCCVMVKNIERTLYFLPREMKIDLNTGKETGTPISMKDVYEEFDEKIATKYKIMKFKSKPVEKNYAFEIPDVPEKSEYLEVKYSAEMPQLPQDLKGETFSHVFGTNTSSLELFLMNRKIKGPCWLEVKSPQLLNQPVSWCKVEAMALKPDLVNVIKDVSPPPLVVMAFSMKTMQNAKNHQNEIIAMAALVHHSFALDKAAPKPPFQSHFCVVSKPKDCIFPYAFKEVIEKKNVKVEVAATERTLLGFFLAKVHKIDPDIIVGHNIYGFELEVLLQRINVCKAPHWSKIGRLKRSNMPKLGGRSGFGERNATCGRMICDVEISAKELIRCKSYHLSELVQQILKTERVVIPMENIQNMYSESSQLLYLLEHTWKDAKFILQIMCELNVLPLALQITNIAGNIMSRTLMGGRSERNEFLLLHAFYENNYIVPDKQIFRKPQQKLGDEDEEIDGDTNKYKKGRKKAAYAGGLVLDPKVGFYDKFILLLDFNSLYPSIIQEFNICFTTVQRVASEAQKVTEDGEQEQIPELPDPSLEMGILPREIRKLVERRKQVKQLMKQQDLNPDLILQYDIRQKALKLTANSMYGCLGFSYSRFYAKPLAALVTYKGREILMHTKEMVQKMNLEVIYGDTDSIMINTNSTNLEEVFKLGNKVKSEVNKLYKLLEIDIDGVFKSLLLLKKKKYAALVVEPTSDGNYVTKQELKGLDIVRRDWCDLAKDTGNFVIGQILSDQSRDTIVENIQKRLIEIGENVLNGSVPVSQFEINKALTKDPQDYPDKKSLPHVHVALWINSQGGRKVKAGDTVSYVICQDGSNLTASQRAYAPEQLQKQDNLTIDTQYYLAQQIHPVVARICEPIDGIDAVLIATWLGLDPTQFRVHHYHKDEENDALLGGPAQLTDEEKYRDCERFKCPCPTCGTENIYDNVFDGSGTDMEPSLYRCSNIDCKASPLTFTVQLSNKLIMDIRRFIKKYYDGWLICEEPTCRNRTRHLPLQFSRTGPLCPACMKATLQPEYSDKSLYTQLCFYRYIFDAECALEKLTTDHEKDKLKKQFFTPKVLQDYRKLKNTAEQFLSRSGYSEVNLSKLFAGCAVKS
Kind of data set: Substrate activity at human DNA polymerase alpha measured after 4 hrs by electrophoresis based primer extension assay.

In data set [15] the test system is Human immunodeficiency virus. The data set is described as follows: Substrate activity at HIV reverse transcriptase measured after 4 hrs by electrophoresis based primer extension assay.
A short description of data set [16]: Prodrug conversion in pH 7.3 phosphate buffer assessed as ((2S,5R)-5-(5-methyl-2,4-dioxo-3,4-dihydropyrimidin-1(2H)-yl)-2,5-dihydrofuran-2-yl)methyl dihydrogen phosphate formation by measuring half life in presence of pig liver esterase by HPLC analysis. Type of data set: ADME.
A short description of data set [17]: Chemical stability of the compound in phosphate buffer saline assessed as half life at pH 7.3 by HPLC analysis. Particulars: phosphate buffered saline. Type of data set: physicochemical.
The test system of data set [18] is Human immunodeficiency virus 2. The data set is described as follows: Antiviral activity against HIV-2 ROD infected in wild-type human CEM/0 cells assessed as inhibition of virus-induced cytopathic effect incubated for 4 to 5 days by light microscopic analysis. Conditions: Human immunodeficiency virus 2, ROD, CCRF-CEM. Type of data set: functional, organism-based.

Data set [19] can be described thus: Prodrug conversion in human CEM/0 cell extract assessed as ((2S,5R)-5-(5-methyl-2,4-dioxo-3,4-dihydropyrimidin-1(2H)-yl)-2,5-dihydrofuran-2-yl)methyl dihydrogen phosphate formation by HPLC analysis. Type of data set: ADME. Particulars: ccrf-cem.
In data set [20] the test system is Human immunodeficiency virus 1. The data set is described as follows: Antiviral activity against HIV-1 HE infected in wild-type human CEM/0 cells assessed as inhibition of virus-induced cytopathic effect incubated for 4 to 5 days by light microscopic analysis. Particulars: Human immunodeficiency virus 1, HE, CCRF-CEM. In kind it is functional, organism-based. For orientation: Damage to the host cells serves as the signal in cytopathic effect assays.

For data set [21], the system named is Human immunodeficiency virus 2. Kind of data set: Antiviral activity against HIV-2 ROD infected in thymidine kinase-deficient human CEM cells assessed as inhibition of virus-induced cytopathic effect incubated for 4 to 5 days by light microscopic analysis. Particulars: Human immunodeficiency virus 2, ROD, CCRF-CEM. Type of data set: functional, organism-based.

As for `CCCCCCCCCCCCCCCCCCOP(=O)(OCCCC)OP(=O)(O)OP(=O)(O)OC[C@@H]1C=C[C@H](n2cc(C)c(=O)[nH]c2=O)O1.N.N` (stereo partly specified), the t1/2 is > 150 h in [1] and > 10 h in data set [11]. Besides, the Drug metabolism entry in data set [2] is given as “Metabolite_Notdetected”; in data set [8] it was “Metabolite_Detected”. Also, the “Ratio EC50” value in data set [3] came out at 10000; in data set [5], 4; in [7] it was 4. In addition, the outcome in data set [4], in [10] and in data set [14] was inactive. Moreover, the selectivity ratio in data set [6] stood at 938. Further, in [9], the CC50 worked out at 30000 nM. The same compound returned a Retention_time in data set [12] of 16.2 min. For the same compound, the half-life in data set [13] is 990 h. Also, the outcome in data set [15] was Active.
Turning to `CCCCCCCCCCCCCCCCCCP(=O)(OCCCC)OP(=O)(O)OP(=O)(O)OC[C@@H]1C=C[C@H](n2cc(C)c(=O)[nH]c2=O)O1.N.N` (stereo partly specified), the t1/2 is > 150 h in data set [1] and > 15 h in data set [11]. In addition, the Drug metabolism result was “Metabolite_Notdetected” in [2] and “Metabolite_Detected” in data set [8]. The result in [4], in data set [10], in data set [14] and in data set [15] was inactive. The CC50 in [9] was 33000 nM. The Retention_time in [12] came to 15.9 min. Further, in data set [13], the half-life was > 1700 h.
For the compound `CCCCCCCCCCCCCCCCCCP(=O)(OCCCC)OP(=O)(O)OC[C@@H]1C=C[C@H](n2cc(C)c(=O)[nH]c2=O)O1.N` (stereo partly specified), the t1/2 in [16] was > 150 h; in data set [11] it was > 40 h. Moreover, the result in [4], in data set [10] and in data set [14] was inactive. Besides, in [17], the half-life was > 125 days. Moreover, in [6], the selectivity ratio stood at 20300. Moreover, the figures for the EC50 in data set [18], in data set [20] and in data set [21] were 16 nM, 31 nM and 2 nM, respectively. Also, the Drug metabolism result was “Metabolite_Notdetected” in data set [8] and “Metabolite_Detected” in data set [19]. Further, in data set [9], the CC50 is 42600 nM. For the same compound, the Retention_time in [12] is 18.5 min. Further, the result in data set [15] was Active.
Turning to `CCCCCCCCCCCCCCCCCCOP(=O)(OCCCC)OP(=O)(O)OC[C@@H]1C=C[C@H](n2cc(C)c(=O)[nH]c2=O)O1.N` (stereo partly specified), the t1/2 was > 150 h in data set [16] and > 18 h in data set [11]. The outcome in [4], in data set [10], in data set [14] and in data set [15] was inactive. Also, the half-life in data set [17] was > 41.7 days. Besides, in data set [6], the selectivity ratio turned out to be 37500. Further, the EC50 came out at 4 nM in data set [18], 33 nM in data set [20] and 1 nM in [21]. Further, the Drug metabolism result in data set [8] is “Metabolite_Notdetected”; in [19], “Metabolite_Detected”. Besides, the CC50 in [9] came out at 41300 nM. In data set [12], this compound returned a Retention_time of 18.9 min.
